Data reported in BigSolDB 2.1.

Nc1cc(Cl)ccc1C(=O)O
Settings | solubility (mole fraction)
in 1,4-dioxane, 283.15 K | 0.0158
in 1,4-dioxane, 285.65 K | 0.0173
in 1,4-dioxane, 288.15 K | 0.0191
in 1,4-dioxane, 290.65 K | 0.0209
in 1,4-dioxane, 293.15 K | 0.0228
in 1,4-dioxane, 295.65 K | 0.0248
in 1,4-dioxane, 298.15 K | 0.0271
in 1,4-dioxane, 300.65 K | 0.0295
in 1,4-dioxane, 303.15 K | 0.032
in 1,4-dioxane, 305.65 K | 0.0348
in 1,4-dioxane, 308.15 K | 0.0375
in 1,4-dioxane, 310.65 K | 0.0405
in 1,4-dioxane, 313.15 K | 0.0436
in NMP, 278.15 K | 0.0323
in NMP, 280.65 K | 0.0338
in NMP, 283.15 K | 0.0354
in NMP, 285.65 K | 0.037
in NMP, 288.15 K | 0.0388
in NMP, 290.65 K | 0.0406
in NMP, 293.15 K | 0.0425
in NMP, 295.65 K | 0.0445
in NMP, 298.15 K | 0.0465
in NMP, 300.65 K | 0.0487
in NMP, 305.65 K | 0.0531
in NMP, 308.15 K | 0.0556
in NMP, 310.65 K | 0.0581
in NMP, 313.15 K | 0.0607
in acetone, 278.15 K | 0.0159
in acetone, 280.65 K | 0.0174
in acetone, 283.15 K | 0.0189
in acetone, 285.65 K | 0.0207
in acetone, 288.15 K | 0.0226
in acetone, 290.65 K | 0.0243
in acetone, 293.15 K | 0.0261
in acetone, 295.65 K | 0.0283
in acetone, 298.15 K | 0.0307
in acetone, 300.65 K | 0.0328
in acetone, 303.15 K | 0.0351
in acetone, 305.65 K | 0.0378
in acetone, 308.15 K | 0.0404
in acetone, 310.65 K | 0.0433
in acetone, 313.15 K | 0.0463
in acetonitrile, 278.15 K | 0.00138
in acetonitrile, 280.65 K | 0.00154
in acetonitrile, 283.15 K | 0.00169
in acetonitrile, 285.65 K | 0.00188
in acetonitrile, 288.15 K | 0.00208
in acetonitrile, 290.65 K | 0.00229
in acetonitrile, 293.15 K | 0.00252
in acetonitrile, 295.65 K | 0.00277
in acetonitrile, 298.15 K | 0.00303
in acetonitrile, 300.65 K | 0.00332
in acetonitrile, 303.15 K | 0.00362
in acetonitrile, 305.65 K | 0.00395
in acetonitrile, 308.15 K | 0.00431
in acetonitrile, 310.65 K | 0.00468
in acetonitrile, 313.15 K | 0.0051
in ethanol, 278.15 K | 0.00994
in ethanol, 280.65 K | 0.0109
in ethanol, 283.15 K | 0.0118
in ethanol, 285.65 K | 0.0129
in ethanol, 288.15 K | 0.014
in ethanol, 290.65 K | 0.0151
in ethanol, 293.15 K | 0.0164
in ethanol, 295.65 K | 0.0177
in ethanol, 298.15 K | 0.0191
in ethanol, 300.65 K | 0.0205
in ethanol, 303.15 K | 0.0221
in ethanol, 305.65 K | 0.0238
in ethanol, 308.15 K | 0.0255
in ethanol, 310.65 K | 0.0273
in ethanol, 313.15 K | 0.0293
in ethyl acetate, 278.15 K | 0.0125
in ethyl acetate, 280.65 K | 0.0136
in ethyl acetate, 283.15 K | 0.0149
in ethyl acetate, 285.65 K | 0.0161
in ethyl acetate, 288.15 K | 0.0176
in ethyl acetate, 290.65 K | 0.0191
in ethyl acetate, 293.15 K | 0.0206
in ethyl acetate, 295.65 K | 0.0222
in ethyl acetate, 298.15 K | 0.0241
in ethyl acetate, 300.65 K | 0.0259
in ethyl acetate, 303.15 K | 0.0278
in ethyl acetate, 308.15 K | 0.0321
in ethyl acetate, 310.65 K | 0.0343
in ethyl acetate, 313.15 K | 0.0368
in ethylbenzene, 278.15 K | 0.00011
in ethylbenzene, 280.65 K | 0.00013
in ethylbenzene, 283.15 K | 0.000149
in ethylbenzene, 285.65 K | 0.000172
in ethylbenzene, 288.15 K | 0.000196
in ethylbenzene, 290.65 K | 0.000224
in ethylbenzene, 293.15 K | 0.000255
in ethylbenzene, 295.65 K | 0.00029
in ethylbenzene, 298.15 K | 0.000326
in ethylbenzene, 300.65 K | 0.000371
in ethylbenzene, 303.15 K | 0.000418
in ethylbenzene, 305.65 K | 0.000472
in ethylbenzene, 308.15 K | 0.000528
in ethylbenzene, 310.65 K | 0.000594
in ethylbenzene, 313.15 K | 0.000664
in isopropanol, 278.15 K | 0.00925
in isopropanol, 280.65 K | 0.0101
in isopropanol, 283.15 K | 0.0111
in isopropanol, 285.65 K | 0.012
in isopropanol, 288.15 K | 0.0131
in isopropanol, 290.65 K | 0.0143
in isopropanol, 293.15 K | 0.0155
in isopropanol, 295.65 K | 0.0167
in isopropanol, 298.15 K | 0.0181
in isopropanol, 300.65 K | 0.0195
in isopropanol, 303.15 K | 0.0211
in isopropanol, 305.65 K | 0.0227
in isopropanol, 308.15 K | 0.0244
in isopropanol, 310.65 K | 0.0262
in isopropanol, 313.15 K | 0.0282
in n-butanol, 278.15 K | 0.00768
in n-butanol, 280.65 K | 0.0084
in n-butanol, 283.15 K | 0.00925
in n-butanol, 285.65 K | 0.0102
in n-butanol, 288.15 K | 0.0111
in n-butanol, 290.65 K | 0.0121
in n-butanol, 293.15 K | 0.0132
in n-butanol, 295.65 K | 0.0144
in n-butanol, 298.15 K | 0.0157
in n-butanol, 300.65 K | 0.017
in n-butanol, 303.15 K | 0.0184
in n-butanol, 305.65 K | 0.0199
in n-butanol, 308.15 K | 0.0215
in n-butanol, 310.65 K | 0.0232
in n-butanol, 313.15 K | 0.025
in n-propanol, 278.15 K | 0.00869
in n-propanol, 280.65 K | 0.0095
in n-propanol, 283.15 K | 0.0103
in n-propanol, 285.65 K | 0.0113
in n-propanol, 288.15 K | 0.0123
in n-propanol, 290.65 K | 0.0134
in n-propanol, 293.15 K | 0.0144
in n-propanol, 295.65 K | 0.0157
in n-propanol, 298.15 K | 0.017
in n-propanol, 300.65 K | 0.0184
in n-propanol, 303.15 K | 0.0198
in n-propanol, 305.65 K | 0.0214
in n-propanol, 308.15 K | 0.023
in n-propanol, 310.65 K | 0.0248
in n-propanol, 313.15 K | 0.0266
in toluene, 278.15 K | 0.000136
in toluene, 280.65 K | 0.000157
in toluene, 283.15 K | 0.00018
in toluene, 285.65 K | 0.000204
in toluene, 288.15 K | 0.000233
in toluene, 290.65 K | 0.000266
in toluene, 293.15 K | 0.000299
in toluene, 295.65 K | 0.000339
in toluene, 298.15 K | 0.000384
in toluene, 300.65 K | 0.000427
in toluene, 303.15 K | 0.000478
in toluene, 305.65 K | 0.000533
in toluene, 308.15 K | 0.000597
in toluene, 310.65 K | 0.000668
in toluene, 313.15 K | 0.000742
